Key:
Format in all cases: cell-based
[1] = test system: Strep uberis SPU1; test: MIC, veterinary bacteria; conditions: veterinary bacteria (Table 2)
[2] = test system: Strep pyogenes A 64/848; test: MIC, human bacteria, serial dilution in nutrient agar; conditions: nutrient agar containing 5% 'chocolated' horse blood
[3] = test system: M. suipneumoniae JF 435; test: MIC, anti-mycoplasmal, Friis broth solidified with 0.9% agarose; conditions: inoculum 10^3 to 10^5 C.F.U., 6 days incubation at 37°C
[4] = test system: Corynebacterium pyogenes CY1; test: MIC, veterinary bacteria; conditions: veterinary bacteria (Table 2)
[5] = test system: Haemophilus influenzae Q1; test: MIC, human bacteria, serial dilution in nutrient agar; conditions: nutrient agar containing 5% 'chocolated' horse blood
[6] = test system: Staph aureus Oxford; test: MIC, veterinary bacteria; conditions: veterinary bacteria (Table 2)
[7] = test system: P mirabilis 889; test: MIC, human bacteria, serial dilution in nutrient agar; conditions: nutrient agar containing 5% 'chocolated' horse blood
[8] = test system: S typhimurium S18; test: MIC, veterinary bacteria; conditions: veterinary bacteria (Table 2)
[9] = test system: M. hyorhinis ATCC 25021; test: MIC, anti-mycoplasmal, Friis broth solidified with 0.9% agarose; conditions: inoculum 10^3 to 10^5 C.F.U., 6 days incubation at 37°C
[10] = test system: M. hyosynoviae ATCC 25591; test: as above; conditions: inoculum 10^3 to 10^5 C.F.U., 6 days incubation at 37°C
[11] = test system: Bacillus subtilis 6633; test: MIC, human bacteria, serial dilution in nutrient agar; conditions: nutrient agar containing 5% 'chocolated' horse blood
[12] = test system: Staph aureus W2827; test: as above; conditions: nutrient agar containing 5% 'chocolated' horse blood
[13] = test system: E coli NCTC 10418; test: MIC, veterinary bacteria; conditions: veterinary bacteria (Table 2)
[14] = test system: Staph aureus 152 (pen sens); test: MIC, veterinary bacteria; conditions: veterinary bacteria (Table 2)
[15] = test system: M. suipneumoniae TAM 6N; test: MIC, anti-mycoplasmal, Friis broth solidified with 0.9% agarose; conditions: inoculum 10^3 to 10^5 C.F.U., 6 days incubation at 37°C
[16] = test system: Strep pyogenes C 2761; test: MIC, human bacteria, serial dilution in nutrient agar; conditions: nutrient agar containing 5% 'chocolated' horse blood
[17] = test system: K aerogenes A; test: as above; conditions: nutrient agar containing 5% 'chocolated' horse blood
[18] = test system: Strep pyogenes B 2788; test: as above; conditions: nutrient agar containing 5% 'chocolated' horse blood
[19] = test system: Staph aureus B4 (pen resis); test: MIC, veterinary bacteria; conditions: veterinary bacteria (Table 2)
[20] = test system: Strep agalactiae SPA1; test: MIC, veterinary bacteria; conditions: veterinary bacteria (Table 2)
[21] = test system: Haemophilus influenzae Wy21; test: MIC, human bacteria, serial dilution in nutrient agar; conditions: nutrient agar containing 5% 'chocolated' horse blood
[22] = test system: Bord bronchiseptica BO8; test: MIC, veterinary bacteria; conditions: veterinary bacteria (Table 2)
[23] = test system: M. bovigenitalium ATCC 14173; test: MIC, anti-mycoplasmal, Friis broth solidified with 0.9% agarose; conditions: inoculum 10^3 to 10^5 C.F.U., 6 days incubation at 37°C
[24] = test system: M. suipneumoniae NB12; test: as above; conditions: inoculum 10^3 to 10^5 C.F.U., 6 days incubation at 37°C
[25] = test system: M. bovis NCTC 10131; test: microbe, parasite or virus in culture; conditions: M. bovis NCTC 10131; inoculum 10^3 to 10^5 C.F.U., 6 days incubation at 37°C
[26] = test system: Bord bronchisptica BO9; test: MIC, veterinary bacteria; conditions: veterinary bacteria (Table 2)
[27] = test system: M. hyorhinis ATCC 23234; test: MIC, anti-mycoplasmal, Friis broth solidified with 0.9% agarose; conditions: inoculum 10^3 to 10^5 C.F.U., 6 days incubation at 37°C
[28] = test system: Neisseria catarrhalis 1502; test: MIC, human bacteria, serial dilution in nutrient agar; conditions: Neisseria catarrhalis 1502 (footnote a); nutrient agar containing 5% 'chocolated' horse blood
[29] = test system: Strep suis (group D) SPS11; test: MIC, veterinary bacteria; conditions: veterinary bacteria (Table 2)
[30] = test system: M. gallisepticum S6; test: MIC, anti-mycoplasmal, Friis broth solidified with 0.9% agarose; conditions: inoculum 10^3 to 10^5 C.F.U., 6 days incubation at 37°C
[31] = test system: Past multocida PA1; test: MIC, veterinary bacteria; conditions: veterinary bacteria (Table 2)
[32] = test system: Pasteurella multocida 1633; test: MIC, human bacteria, serial dilution in nutrient agar; conditions: nutrient agar containing 5% 'chocolated' horse blood
[33] = test system: E coli NCTC 10418; test: as above; conditions: nutrient agar containing 5% 'chocolated' horse blood
[34] = test system: M. suipneumoniae PW/C/210; test: MIC, anti-mycoplasmal, Friis broth solidified with 0.9% agarose; conditions: inoculum 10^3 to 10^5 C.F.U., 6 days incubation at 37°C
[35] = test system: Past multocida PA2; test: MIC, veterinary bacteria; conditions: veterinary bacteria (Table 2)
[36] = test system: Strep faecalis I; test: MIC, human bacteria, serial dilution in nutrient agar; conditions: nutrient agar containing 5% 'chocolated' horse blood
[37] = test system: M. pneumoniae ATCC 15492; test: MIC, anti-mycoplasmal, Friis broth solidified with 0.9% agarose; conditions: inoculum 10^3 to 10^5 C.F.U., 6 days incubation at 37°C
[38] = test system: Strep dysgalaciae SPD1; test: MIC, veterinary bacteria; conditions: veterinary bacteria (Table 2)
[39] = test system: Ps aeruginosa 10662; test: MIC, human bacteria, serial dilution in nutrient agar; conditions: nutrient agar containing 5% 'chocolated' horse blood
[40] = test system: M. suipneumoniae ATCC 25095; test: MIC, anti-mycoplasmal, Friis broth solidified with 0.9% agarose; conditions: inoculum 10^3 to 10^5 C.F.U., 6 days incubation at 37°C
[41] = test system: M. suipneumoniae Str. 11; test: as above; conditions: inoculum 10^3 to 10^5 C.F.U., 6 days incubation at 37°C
[42] = test system: M. suipneumoniae UCD 1; test: as above; conditions: inoculum 10^3 to 10^5 C.F.U., 6 days incubation at 37°C
[43] = test system: M. suipneumoniae NCTC 10110; test: as above; conditions: inoculum 10^3 to 10^5 C.F.U., 6 days incubation at 37°C
[44] = test system: E coli E1; test: MIC, veterinary bacteria; conditions: veterinary bacteria (Table 2)
[45] = test system: Staph aureus Oxford; test: MIC, human bacteria, serial dilution in nutrient agar; conditions: nutrient agar containing 5% 'chocolated' horse blood
[46] = test system: M. suipneumoniae MS 16; test: MIC, anti-mycoplasmal, Friis broth solidified with 0.9% agarose; conditions: inoculum 10^3 to 10^5 C.F.U., 6 days incubation at 37°C
[47] = test system: M. suipneumoniae HK(2); test: as above; conditions: inoculum 10^3 to 10^5 C.F.U., 6 days incubation at 37°C
[48] = test system: Past Haemolytica PA5; test: MIC, veterinary bacteria; conditions: veterinary bacteria (Table 2)
[49] = test system: M. suipneumoniae LABER; test: MIC, anti-mycoplasmal, Friis broth solidified with 0.9% agarose; conditions: inoculum 10^3 to 10^5 C.F.U., 6 days incubation at 37°C
[50] = test system: Erysipelothrix rhusiopathiae NCTC 8163; test: MIC, veterinary bacteria; conditions: veterinary bacteria (Table 2)
[51] = test system: M. dispar NCTC 10125; test: MIC, anti-mycoplasmal, Friis broth solidified with 0.9% agarose; conditions: inoculum 10^3 to 10^5 C.F.U., 6 days incubation at 37°C
[52] = test system: Strep pneumoniae CN33; test: MIC, human bacteria, serial dilution in nutrient agar; conditions: nutrient agar containing 5% 'chocolated' horse blood
[53] = test system: E coli ESS; test: as above; conditions: nutrient agar containing 5% 'chocolated' horse blood
[54] = test system: S dublin S7; test: MIC, veterinary bacteria; conditions: veterinary bacteria (Table 2)
[55] = test system: Staph aureus Russell; test: MIC, human bacteria, serial dilution in nutrient agar; conditions: nutrient agar containing 5% 'chocolated' horse blood
[56] = test system: M. suipneumoniae J2206/183b; test: MIC, anti-mycoplasmal, Friis broth solidified with 0.9% agarose; conditions: inoculum 10^3 to 10^5 C.F.U., 6 days incubation at 37°C

In the case of 5-Acetylpentyl monate A [Example 7], the MIC [1] is reported as “.156 µg/mL”, the MIC [2] is reported as 0.5 µm/ml and the “in vitro MIC” value [3] is reported as 0.25 µg/mL. The MIC [4] was greater than 80 µg/mL, the MIC [5] was 0.2 µm/ml and the MIC [6] was “.625 µg/mL”. The MIC [7] was greater than 100 µm/ml, the MIC [8] was greater than 80 µg/mL and the “in vitro MIC” value [9] was 0.1 µg/mL. For the same substance, the “in vitro MIC” value [10] was 0.025 µg/mL, the MIC [11] was 0.5 µm/ml and the MIC [12] was 2.5 µm/ml. For the same substance, the MIC [13] was 80 µg/mL, the MIC [14] was “.625 µg/mL” and the “in vitro MIC” value [15] was 0.5 µg/mL. The MIC [16] was 2.5 µm/ml, the MIC [17] was greater than 100 µm/ml and the MIC [18] was 2.5 µm/ml. The MIC [19] was “.625 µg/mL”, the MIC [20] was “.625 µg/mL” and the MIC [21] was 0.1 µm/ml. The MIC [22] was 40 µg/mL, the “in vitro MIC” value [23] was 0.025 µg/mL and the “in vitro MIC” value [24] was 0.25 µg/mL. The “in vitro MIC” value [25] was less than 0.01 µg/mL, the MIC [26] was 5 µg/mL and the “in vitro MIC” value [27] was 0.1 µg/mL. For the same substance, the MIC [28] was “^a0.5 µm/ml”, the MIC [29] was 5 µg/mL and the “in vitro MIC” value [30] was 2.5 µg/mL. The MIC [31] was “.625 µg/mL”, the MIC [32] was 0.5 µm/ml and the MIC [33] was greater than 100 µm/ml. The “in vitro MIC” value [34] was 0.25 µg/mL, the MIC [35] was “.312 µg/mL” and the MIC [36] was greater than 100 µm/ml. The “in vitro MIC” value [37] was 0.5 µg/mL, the MIC [38] was “.312 µg/mL” and the MIC [39] was greater than 100 µm/ml. For the same substance, the “in vitro MIC” value [40] was 0.25 µg/mL, the “in vitro MIC” value [41] was 0.25 µg/mL and the “in vitro MIC” value [42] was 0.5 µg/mL. The “in vitro MIC” value [43] was 0.5 µg/mL, the MIC [44] was greater than 80 µg/mL and the MIC [45] was 1.0 µm/ml. For the same substance, the “in vitro MIC” value [46] was 0.25 µg/mL, the “in vitro MIC” value [47] was 0.5 µg/mL and the MIC [48] was 5 µg/mL. The “in vitro MIC” value [49] was 0.25 µg/mL, the MIC [50] was 40 µg/mL and the “in vitro MIC” value [51] was 0.05 µg/mL. The MIC [52] was 0.5 µm/ml, the MIC [53] was 0.5 µm/ml and the MIC [54] was greater than 80 µg/mL. For the same substance, the MIC [55] was 1.0 µm/ml and the “in vitro MIC” value [56] was 0.5 µg/mL.

Reference: patent EP0025288A1, “Derivatives of monic acid, processes for their preparation, compositions containing them and their preparation” (priority 1979, dated 1981)
